Paper PMC7408964, “Efficient Therapeutic Delivery by a Novel Cell-Penetrating Peptide Derived from Acinus” (Cancers, 2020)
Where no end group is shown, it is not given here.

Experiments:
HUT78 Sézary cells = assay: Cell viability, MTT assay, HUT78 cells (with or without cell death inhibitors); assay type: cell-based; conditions: 20 h; for effect of pan-caspase inhibitor zVAD-fmk on peptide-induced cytotoxicity: increasing peptide concentrations, 50 μM zVAD-fmk, MTT, n = 3
Description: (§3) Cells survival was assessed with the CellTiter 96® Aqueous One Solution Cell Proliferation Assay kit (Promega, Madison, WI, USA).

[1] = system: non-malignant CD4+ T-cells, CD3+CD4+Vβ− cells; assay: Ex vivo cell death in Sézary patients' PBMC, 7-AAD flow cytometry, non-malignant CD4+ T-cells; assay type: cell-based, human; conditions: increasing concentrations, 4 h, 37 °C, PBMC of three patients
Description: (§1) SS diagnosis was established on recognized international clinical, histological, and biological criteria. Blood from SS patients with more than 90% of malignant CD4^+ T cells (identified by their TCR-Vβ rearrangement) was collected for the present study, which was approved by the institutional ethics committee (Saint Louis Hospital, Paris. Protocol no. 2011-oct.12735). Peripheral blood mononuclear cells (PBMC) were isolated from heparinized venous blood by density gradient centrifugation over lymphocytes separating medium (LSM; PAA Laboratories, Les Mureaux, France). The Sézary cell line HUT78 was amplified as previously described and cultured in RPMI 1640 supplemented with 2 mM L-glutamine, 1% penicillin-streptomycin (Invitrogen) and 10% heat-inactivated fetal calf serum (Life Technologies). All other cell lines were cultured in DMEM supplemented with 2 mM L-glutamine, 1% penicillin-streptomycin (Invitrogen) and 10% heat-inactivated fetal calf serum (Life Technologies).
(§2) PBMC exposed or not to RT33 or RT33 DR were processed for flow cytometry to assess cell death. Cells were labelled with a mix of anti-TCR-Vβ-FITC, -CD3-PE, and -CD4-PE-Cy7 mAbs (Beckman Coulter). Detection of apoptotic cells was performed using 7 AAD (BD Biosciences). Cells were analyzed on a CytoFlex cytometer (Beckman Coulter) and data treated with FlowJo software.

non T-cells, CD3− cells = assay: Ex vivo cell death in Sézary patients' PBMC, 7-AAD flow cytometry, non T-cells; assay type: cell-based, human; conditions: increasing concentrations, 4 h, 37 °C, PBMC of three patients
Description: as §1, §2

[2] = system: HUT78 Sézary cells xenograft; assay: Sub-cutaneous xenograft mouse model for the Sézary syndrome; assay type: in vivo, NOD/SCID gamma (NSG) mice; conditions: 5 mg/kg daily i.p.
Description: Animal experiments were approved by The University Board Ethics Committee for Experimental Animal Studies (#2303.01). Xenograft tumors were obtained by subcutaneous injection of 10^6 HUT78 cells in the right flank of 8-week-old female NOD-SCID-gamma (NSG) mice, bred and housed under pathogen-free conditions at our animal facility (IUH, Saint Louis Hospital, Paris, France). Treatment started after randomization when tumors were visible and consisted of daily intraperitoneal (i.p.) injection of normal saline or RT33 or RT33 DR in normal saline (n = 5 per group). Tumor volume was measured every other day and calculated as: long axis × short axis^2 × 0.5. Animals were euthanized after 21 days of treatment or when tumor size reached the ethical end point and visceral organs were excised for a gross pathological examination. Tumors were fixed in 4% neutral buffered formalin and embedded in paraffin. Sections (4 µm) were stained with hematoxylin-eosin (H&E) and subjected to microscopic analysis and image recording. Histological analysis was performed at the HistIM facility of Cochin Institute (Paris, France). Slides were imaged using a Lamina multilabel slide scanner (Perkin Elmer).

[3] = system: normal (HaCat, MRC-5) cells; assay: Cell viability, MTT assay, normal cells; assay type: cell-based; conditions: increasing concentrations, 20 h, n = 3
Description: as §3

Row | Substance | cell viability, AAC-11 portion alone (HUT78 Sézary cells; 20 µM, MTT assay, n = 3 (Supplementary Figure S4)) | cell death / viability of non-malignant CD4+ T-cells (7-AAD+) [1] | cell death / viability of non T-cells (7-AAD+) (non T-cells, CD3− cells) | effect of pan-caspase inhibitor zVAD-fmk on peptide-induced cytotoxicity (HUT78 Sézary cells) | clinical symptoms during the experimental period [2] | cell viability of normal cells [3]
1 | AAC-11 specific portion: peptide comprising AAC-11 residues 377 to 399, without CPP (LQYFARGLQVYIRQLRLALQGKT; UniProt Q9BZZ5 377-399, looked up, fragment) [reference compound] | nor the AAC-11 specific portion alone (Supplementary Figure S4) decreased cell viability |  |  |  |  | 
2 | RSRSRDRRRK [hAP10] |  | did not induce cell death | did not induce cell death |  |  | 
3 | RSRSRDRRRKLQYFARGLQVYIRQLRLALQGKT [RT33] |  | neither peptide decreased cell viability | neither peptide decreased cell viability | did not block | No obvious clinical symptoms | sparing the normal cells tested
4 | RSRSRRRRRK [hAP10DR] |  | did not induce cell death | did not induce cell death |  |  | 
5 | RSRSRRRRRKLQYFARGLQVYIRQLRLALQGKT [RT33DR] |  | neither peptide decreased cell viability | neither peptide decreased cell viability | did not block | No obvious clinical symptoms | sparing the normal cells tested
